For one compound, IC50 results are on record in ChEMBL document CHEMBL1201862, “PubChem BioAssay data set” (2004).

For assay [1], the target named is T1, High affinity choline transporter 1 (Homo sapiens, UniProt Q9GZV3).
T1 sequence (Q9GZV3 whole entry): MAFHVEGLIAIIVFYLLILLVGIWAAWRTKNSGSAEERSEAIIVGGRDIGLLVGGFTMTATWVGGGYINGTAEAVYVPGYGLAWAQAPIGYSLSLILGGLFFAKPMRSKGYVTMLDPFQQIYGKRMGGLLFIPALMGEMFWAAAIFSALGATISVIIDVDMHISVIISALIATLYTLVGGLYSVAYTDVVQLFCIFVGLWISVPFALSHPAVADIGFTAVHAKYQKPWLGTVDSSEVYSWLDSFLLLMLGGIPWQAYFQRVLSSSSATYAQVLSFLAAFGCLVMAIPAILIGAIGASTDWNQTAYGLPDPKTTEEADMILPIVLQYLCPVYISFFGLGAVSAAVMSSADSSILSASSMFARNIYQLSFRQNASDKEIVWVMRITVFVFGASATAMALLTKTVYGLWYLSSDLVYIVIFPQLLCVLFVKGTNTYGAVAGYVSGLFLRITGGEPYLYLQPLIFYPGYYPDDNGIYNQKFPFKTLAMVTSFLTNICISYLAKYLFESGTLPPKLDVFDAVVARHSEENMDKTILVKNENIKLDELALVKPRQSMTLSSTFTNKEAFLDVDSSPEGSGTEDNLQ
Put plainly: CHT inhibitors, dose response, cell-based, 10-point CRC, membrane potential dye (AID 588401).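 Further: membrane potential dye fluorescence of choline-evoked depolarization via CHT.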 It counts as functional.

The target in assay [2] is T1, High affinity choline transporter 1. Put plainly: CHT inhibitors, dose response, cell-based, 5-point CRC, membrane potential dye (AID 504840). Format: functional.

Active and inactive are the calls of the source. How the calls were made is not given here.

Broadly, the IC50 is the concentration needed to halve the response being measured. As for `O=C(O)CC1=C(Nc2ccccc2)C(=O)N(c2ccccc2)C1c1ccc(F)cc1` (configuration not stated), the IC50 in assay [1] was 751 nM (active); in assay [2], 3900 nM (active).
